Assays:
Type in all cases: in vivo
[1] = test system: winter barley (Hordeum vulgare); experiment: Test B postemergence plant response
In short: (§1)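 Visual ratings from 0 (no effect) to 100 (complete control), made against controls 13–15 days after treatment, kept in a greenhouse. Compounds were applied postemergence to potted plants at the 1- to 4-leaf stage (2–18 cm).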

[2] = test system: canarygrass (Phalaris minor); experiment: Test B postemergence plant response
In short: as §1

[3] = test system: windgrass (Apera spica-venti); experiment: Test B postemergence plant response
In short: as §1

[4] = test system: chickweed (Stellaria media); experiment: Test B postemergence plant response
In short: as §1

[5] = test system: barnyardgrass (Echinochloa crus-galli); experiment: Test B flooded paddy test; details: for Plant response rating, Flood, Barnyardgrass: 250 g ai/ha, flooded paddy test, visual rating on 0 to 100 scale (0 no effect, 100 complete control) after 13 to 15 days; for Plant response rating, Barnyardgrass: Flood (flooded paddy test), 13 to 15 days
In short: (§2)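 Post-flood paddy application: compounds are introduced into water 3 cm deep over the soil, reaching plants at the 2-leaf stage. The water level is maintained, and after 13–15 days under greenhouse conditions, response is judged by eye relative to controls, where 100 means complete control.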

[6] = test system: rice (Oryza sativa); experiment: Test B flooded paddy test; details: for Plant response rating, Flood, Rice: 250 g ai/ha, flooded paddy test, visual rating on 0 to 100 scale (0 no effect, 100 complete control) after 13 to 15 days; for Plant response rating, Rice: Flood (flooded paddy test), 13 to 15 days
In short: as §2

[7] = test system: umbrella sedge (Cyperus difformis); experiment: Test B flooded paddy test; details: for Plant response rating, Flood, Sedge, Umbrella: 250 g ai/ha, flooded paddy test, visual rating on 0 to 100 scale (0 no effect, 100 complete control) after 13 to 15 days; for Plant response rating, Sedge, Umbrella: Flood (flooded paddy test), 13 to 15 days
In short: as §2

[8] = test system: ducksalad (Heteranthera limosa); experiment: Test B flooded paddy test; details: for Plant response rating, Flood, Ducksalad: 250 g ai/ha, flooded paddy test, visual rating on 0 to 100 scale (0 no effect, 100 complete control) after 13 to 15 days; for Plant response rating, Ducksalad: Flood (flooded paddy test), 13 to 15 days
In short: as §2

[9] = test system: goosegrass (Eleusine indica); experiment: Test B pre-/postemergence plant response; details: Preemergence, 62 g ai/ha; scale 0 to 100, 0 no effect, 100 complete control
[10] = test system: Italian ryegrass (Lolium multiflorum); experiment: Test B pre-/postemergence plant response
In short: (§3)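 Greenhouse herbicide screen. Pre- and postemergence (1- to 4-leaf) spray of compound in solvent/surfactant mixture; loam–sand soil for pre, peat/vermiculite medium for post. Visual control rating 0–100 at 13 to 15 days after treatment.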

[11] = test system: giant foxtail (Setaria faberii); experiment: Test B pre-/postemergence plant response
In short: as §3

[12] = test system: ragweed (common ragweed, Ambrosia elatior); experiment: Test B pre-/postemergence plant response
In short: as §3

[13] = test system: sunflower (common oilseed sunflower, Helianthus annuus); experiment: Test B pre-/postemergence plant response; details: Preemergence
In short: as §3

[14] = test system: nightshade (eastern black nightshade, Solanum ptycanthum); experiment: Test B pre-/postemergence plant response; details: Preemergence
In short: as §3

[15] = test system: galium (catchweed bedstraw, Galium aparine); experiment: Test B pre-/postemergence plant response; details: Preemergence
In short: as §3

[16] = test system: Russian thistle (Salsola kali); experiment: Test B pre-/postemergence plant response; details: Preemergence, 62 g ai/ha; scale 0 to 100, 0 no effect, 100 complete control
In short: as §3

[17] = Postemergence, 31 g ai/ha, scale 0 to 100 (0 no effect, 100 complete control)
[18] = Postemergence, 62 g ai/ha, scale 0 (no effect) to 100 (complete control), 13 to 15 days
[19] = Postemergence, 125 g ai/ha, visual rating after 13 to 15 days, scale 0 (no effect) to 100 (complete control)
[20] = Postemergence, 250 g ai/ha, scale 0 to 100
[21] = 62 g ai/ha, scale 0 to 100, 0 is no effect, 100 is complete control
[22] = 250 g ai/ha, Preemergence, 0 to 100 scale
[23] = Preemergence, 31 g ai/ha, scale 0 to 100 (0 no effect, 100 complete control)
[24] = Preemergence, 125 g ai/ha, 0 to 100 scale
[25] = Preemergence, 62 g ai/ha, scale 0 to 100, 0 no effect, 100 complete control
[26] = 31 g ai/ha, scale 0 to 100 (0 no effect, 100 complete control)
[27] = 62 g ai/ha, scale 0 to 100, 0 no effect, 100 complete control
[28] = 31 g ai/ha, postemergence, scale 0 to 100, 0 is no effect, 100 is complete control
[29] = Postemergence, 250 g ai/ha, scale 0 to 100 (0 no effect, 100 complete control)
[30] = 62 g ai/ha, scale of 0 to 100 where 0 is no effect and 100 is complete control
[31] = 125 g ai/ha, scale 0 to 100, 0 is no effect, 100 is complete control
[32] = Flood, 31 g ai/ha, scale 0 to 100 (0 no effect, 100 complete control)
[33] = Preemergence, 125 g ai/ha, scale 0 to 100, 0 no effect, 100 complete control
[34] = 125 g ai/ha, scale 0 to 100, 0 no effect, 100 complete control

Cc1ccc(-n2c(-c3cccc(Cl)c3)ncc(C(=O)C3=C(O)CCCC3=O)c2=O)cc1 [Compound 39]
Plant response rating, Barley [1, 17]: 0 | Plant response rating, Barley [1, 18]: 0 | Plant response rating, Barley [1, 19]: 0 | Barley plant response rating [1, 20]: 10 | Plant response rating, Canarygrass [2, 17]: 0 | Plant response rating, Canarygrass [2, 18]: 0 | Plant response rating, Canarygrass [2, 19]: 0 | Canarygrass plant response rating [2, 20]: 20 | Plant response rating, Windgrass [3, 18]: 0 | Plant response rating, Windgrass [3, 19]: 5 | Plant response rating, Chickweed [4, 17]: 98 | Plant response rating, Chickweed [4, 18]: 100 | Plant response rating, Chickweed [4, 19]: 100 | Chickweed plant response rating [4, 20]: 100 | Plant response rating, Flood, Barnyardgrass [5]: 30 | Plant response rating, Barnyardgrass [5, 21]: 0 | Plant response rating, Flood, Rice [6]: 15 | Plant response rating, Rice [6, 21]: 0 | Plant response rating, Flood, Sedge, Umbrella [7]: 90 | Plant response rating, Sedge, Umbrella [7, 21]: 90 | Plant response rating, Flood, Ducksalad [8]: 90 | Plant response rating, Ducksalad [8, 21]: 80 | Plant response rating, Goosegrass [9]: 100 | Plant response rating, Ryegrass, Italian [10, 22]: 0 | Plant response rating, Ryegrass, Italian [10, 18]: 5 | Plant response rating, Ryegrass, Italian [10, 19]: 5 | Plant response rating, Ryegrass, Italian [10, 23]: 0 | Ryegrass, Italian plant response rating [10, 24]: 0 | Plant response rating, Foxtail, Giant [11, 22]: 75 | Plant response rating, Foxtail, Giant [11, 17]: 75 | Plant response rating, Foxtail, Giant [11, 18]: 85 | Plant response rating, Foxtail, Giant [11, 19]: 95 | Foxtail, Giant plant response rating [11, 20]: 95 | Plant response rating, Foxtail, Giant [11, 23]: 0 | Plant response rating, Foxtail, Giant [11, 25]: 45 | Foxtail, Giant plant response rating [11, 24]: 70 | Plant response rating, Ragweed [12, 22]: 95 | Plant response rating, Ragweed [12, 18]: 85 | Plant response rating, Ragweed [12, 19]: 95 | Plant response rating, Ragweed [12, 23]: 0 | Ragweed plant response rating [12, 24]: 75 | Plant response rating, Sunflower ([13]; 250 g ai/ha, 0 to 100 scale): 65 | Plant response rating, Sunflower [13, 26]: 0 | Sunflower plant response rating ([13]; 125 g ai/ha, 0 to 100 scale): 25 | Plant response rating, Nightshade ([14]; 250 g ai/ha, 0 to 100 scale): 100 | Plant response rating, Nightshade [14, 26]: 50 | Plant response rating, Nightshade [14, 27]: 100 | Nightshade plant response rating ([14]; 125 g ai/ha, 0 to 100 scale): 100 | Plant response rating, Galium ([15]; 250 g ai/ha, 0 to 100 scale): 85 | Plant response rating, Galium [15, 26]: 70 | Plant response rating, Galium [15, 27]: 80 | Galium plant response rating ([15]; 125 g ai/ha, 0 to 100 scale): 85

O=C1CCCC(O)=C1C(=O)c1cnc(-c2cccs2)n(-c2ccccc2)c1=O [Compound 66]
Plant response rating, Barley [1, 28]: 0 | Plant response rating, Barley [1, 18]: 0 | Plant response rating, Barley [1, 19]: 0 | Plant response rating, Barley [1, 29]: 0 | Plant response rating, Canarygrass [2, 28]: 0 | Plant response rating, Canarygrass [2, 18]: 0 | Plant response rating, Canarygrass [2, 19]: 0 | Plant response rating, Canarygrass [2, 29]: 0 | Plant response rating, Windgrass [3, 28]: 60 | Plant response rating, Windgrass [3, 18]: 60 | Plant response rating, Windgrass [3, 19]: 70 | Plant response rating, Windgrass [3, 29]: 80 | Plant response rating, Chickweed [4, 28]: 80 | Plant response rating, Chickweed [4, 18]: 85 | Plant response rating, Chickweed [4, 19]: 95 | Plant response rating, Chickweed [4, 29]: 98 | Plant response rating, Flood, Barnyardgrass [5]: 45 | Plant response rating, Barnyardgrass [5, 30]: 0 | Plant response rating, Barnyardgrass [5, 31]: 0 | Barnyardgrass plant response rating [5, 32]: 0 | Plant response rating, Flood, Rice [6]: 20 | Plant response rating, Rice [6, 30]: 0 | Plant response rating, Rice [6, 31]: 0 | Rice plant response rating [6, 32]: 0 | Plant response rating, Flood, Sedge, Umbrella [7]: 50 | Plant response rating, Sedge, Umbrella [7, 30]: 0 | Plant response rating, Sedge, Umbrella [7, 31]: 30 | Sedge, Umbrella plant response rating [7, 32]: 0 | Plant response rating, Flood, Ducksalad [8]: 20 | Plant response rating, Ducksalad [8, 30]: 0 | Plant response rating, Ducksalad [8, 31]: 0 | Ducksalad plant response rating [8, 32]: 0 | Plant response rating, Ryegrass, Italian [10, 28]: 0 | Plant response rating, Ryegrass, Italian [10, 18]: 0 | Plant response rating, Ryegrass, Italian [10, 19]: 5 | Plant response rating, Ryegrass, Italian [10, 29]: 10 | Plant response rating, Ryegrass, Italian [10, 23]: 0 | Plant response rating, Ryegrass, Italian [10, 25]: 0 | Plant response rating, Ryegrass, Italian [10, 33]: 0 | Plant response rating, Foxtail, Giant [11, 28]: 65 | Plant response rating, Foxtail, Giant [11, 22]: 80 | Plant response rating, Foxtail, Giant [11, 18]: 75 | Plant response rating, Foxtail, Giant [11, 19]: 80 | Plant response rating, Foxtail, Giant [11, 29]: 95 | Plant response rating, Foxtail, Giant [11, 23]: 15 | Plant response rating, Foxtail, Giant [11, 25]: 20 | Plant response rating, Foxtail, Giant [11, 33]: 75 | Plant response rating, Ragweed [12, 28]: 0 | Plant response rating, Ragweed [12, 18]: 10 | Plant response rating, Ragweed [12, 19]: 25 | Plant response rating, Ragweed [12, 29]: 60 | Plant response rating, Ragweed [12, 23]: 0 | Plant response rating, Ragweed [12, 25]: 0 | Plant response rating, Ragweed [12, 33]: 45 | Plant response rating, Sunflower [13, 26]: 0 | Plant response rating, Sunflower [13, 27]: 0 | Plant response rating, Sunflower [13, 34]: 0 | Plant response rating, Russian Thistle [16]: 0 | Plant response rating, Nightshade [14, 26]: 80 | Plant response rating, Nightshade [14, 27]: 95 | Plant response rating, Nightshade [14, 34]: 98 | Plant response rating, Galium ([15]; 250 g ai/ha, 0 to 100 scale): 0 | Plant response rating, Galium [15, 26]: 0 | Plant response rating, Galium [15, 27]: 0 | Plant response rating, Galium [15, 34]: 0
